Measurements from patent US9371292B2, “Quinazoline derivative, preparation method therefor, intermediate, composition and application thereof” (SHANGHAI PHARMACEUTICALS HOLDINGS CO., LTD., priority 2011, dated 2016).
pIC50: −log10 of the molar value. Where two headings read alike, the source gives them in different places.

What was measured:
HER2 = HER2 (Homo sapiens, UniProt P04626); experiment: Mobility shift assay, kinase inhibition (HER2); type: biochemical; details: read-out: Kinase inhibitory activity IC50 (nM) HER2
Chain of HER2 (P04626 23-1255): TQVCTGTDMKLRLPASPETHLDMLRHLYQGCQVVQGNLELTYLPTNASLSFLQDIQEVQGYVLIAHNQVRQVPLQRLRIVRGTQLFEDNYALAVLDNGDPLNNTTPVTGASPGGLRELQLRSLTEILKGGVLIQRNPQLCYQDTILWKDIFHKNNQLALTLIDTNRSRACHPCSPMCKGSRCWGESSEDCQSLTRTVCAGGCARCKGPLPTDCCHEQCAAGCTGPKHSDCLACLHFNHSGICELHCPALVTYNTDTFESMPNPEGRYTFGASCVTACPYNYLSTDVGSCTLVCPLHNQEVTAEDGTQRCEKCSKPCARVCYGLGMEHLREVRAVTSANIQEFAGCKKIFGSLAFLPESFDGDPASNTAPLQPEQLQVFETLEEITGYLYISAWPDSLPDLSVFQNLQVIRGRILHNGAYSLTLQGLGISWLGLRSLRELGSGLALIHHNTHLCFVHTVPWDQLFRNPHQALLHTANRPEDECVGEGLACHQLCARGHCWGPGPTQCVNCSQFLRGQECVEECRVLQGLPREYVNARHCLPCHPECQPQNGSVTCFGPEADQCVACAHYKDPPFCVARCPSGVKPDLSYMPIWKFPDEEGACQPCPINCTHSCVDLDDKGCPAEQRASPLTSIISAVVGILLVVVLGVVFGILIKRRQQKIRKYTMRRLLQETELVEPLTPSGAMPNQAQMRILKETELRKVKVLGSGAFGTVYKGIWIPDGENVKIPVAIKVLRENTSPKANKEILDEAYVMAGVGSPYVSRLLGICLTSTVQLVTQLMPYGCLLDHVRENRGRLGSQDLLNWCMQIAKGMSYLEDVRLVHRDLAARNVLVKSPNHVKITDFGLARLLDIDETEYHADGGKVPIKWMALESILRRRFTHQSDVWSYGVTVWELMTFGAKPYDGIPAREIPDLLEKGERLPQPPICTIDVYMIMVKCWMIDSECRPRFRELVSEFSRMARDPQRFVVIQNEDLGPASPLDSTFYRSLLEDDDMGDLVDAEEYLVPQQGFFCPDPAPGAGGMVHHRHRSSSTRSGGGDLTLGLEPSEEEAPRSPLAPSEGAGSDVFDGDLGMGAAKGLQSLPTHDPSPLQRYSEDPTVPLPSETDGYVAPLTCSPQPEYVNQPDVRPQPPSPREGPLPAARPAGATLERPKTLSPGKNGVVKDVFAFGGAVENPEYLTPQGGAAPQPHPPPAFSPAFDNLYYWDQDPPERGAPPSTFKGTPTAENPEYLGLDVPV
Description: (§1) Enzyme activity assay was test by the Mobility shift assay method (Expert Opin Drug Discov. 2008, 3(6): 607-621). A 10 mM stock solution of the test compound in DMSO were made after weighing. According to the required concentration, proper quantity of the 10 mM stock solution was dissolved in water to get a work solution with a concentration 5 times the final concentration. And various kinases, EGFR, HER2, HER4 were dissolved into a reaction buffer with a concentration 1.25 times the required concentration (62.5 mM HEPES, pH7.5, 0.001875% Brij-35, 12.5 mM MgCl2, 2.5 mM DTT), and get a enzyme work solution with a concentration 2.5 times the final concentration. At the same time, ATP and FAM tag peptide substrates will be dissolved in the reaction buffer with a concentration of 1.25× to get a substrate and ATP working solution with a concentration 2.5 times the required concentration. Then 5 μl the work solution of compound is added to 384 wells test plate, 5 μl 250 mM EDTA is added to a blank control, the same volume of work solution without drug is added to the negative control (Max). 10 μl Enzyme work solution is added at the same time. After mix gently and hatch for 10 minutes at room temperature, 10 μl substrate and ATP work solution are added to each well. The test plates are placed at 28 degrees for 60 mins. Then 25 μl suspending liquid is added into each reaction well (100 mM HEPES, pH7.5, 0.015% Brij-35, 0.2% Coating Reagent#3, 50 mM EDTA) to quench the enzyme reaction. Finally, the plate is put on Caliper EZ reader to collect conversion rate of the substrate in each well (The phosphorylation ratio of the substrate caused by the kinases). Based on the data described above, the kinase inhibitory of the compound can be calculated as follows: % inh=(Max−conversion)/(Max−Min)×100, wherein % inh is percent inhibition, Max is the conversion ratio of the substrate in negative control well, min is the conversion ratio of the substrate in blank control well, conversion is the conversion rate of substrate in each well with various concentration of the test compound. The % inh value of each concentration of the test compound would be analyzed in Xlift to obtain the corresponding IC50 value, the curve fitting formula is: Y=Bottom+(Top−Bottom)/(1+10^((Log IC50−X)*Hillslope))

EGFR = EGFR (Homo sapiens, UniProt P00533); experiment: Mobility shift assay, kinase inhibition (EGFR); type: biochemical; details: read-out: Kinase inhibitory activity IC50 (nM) EGFR
Chain of EGFR (P00533 25-1210): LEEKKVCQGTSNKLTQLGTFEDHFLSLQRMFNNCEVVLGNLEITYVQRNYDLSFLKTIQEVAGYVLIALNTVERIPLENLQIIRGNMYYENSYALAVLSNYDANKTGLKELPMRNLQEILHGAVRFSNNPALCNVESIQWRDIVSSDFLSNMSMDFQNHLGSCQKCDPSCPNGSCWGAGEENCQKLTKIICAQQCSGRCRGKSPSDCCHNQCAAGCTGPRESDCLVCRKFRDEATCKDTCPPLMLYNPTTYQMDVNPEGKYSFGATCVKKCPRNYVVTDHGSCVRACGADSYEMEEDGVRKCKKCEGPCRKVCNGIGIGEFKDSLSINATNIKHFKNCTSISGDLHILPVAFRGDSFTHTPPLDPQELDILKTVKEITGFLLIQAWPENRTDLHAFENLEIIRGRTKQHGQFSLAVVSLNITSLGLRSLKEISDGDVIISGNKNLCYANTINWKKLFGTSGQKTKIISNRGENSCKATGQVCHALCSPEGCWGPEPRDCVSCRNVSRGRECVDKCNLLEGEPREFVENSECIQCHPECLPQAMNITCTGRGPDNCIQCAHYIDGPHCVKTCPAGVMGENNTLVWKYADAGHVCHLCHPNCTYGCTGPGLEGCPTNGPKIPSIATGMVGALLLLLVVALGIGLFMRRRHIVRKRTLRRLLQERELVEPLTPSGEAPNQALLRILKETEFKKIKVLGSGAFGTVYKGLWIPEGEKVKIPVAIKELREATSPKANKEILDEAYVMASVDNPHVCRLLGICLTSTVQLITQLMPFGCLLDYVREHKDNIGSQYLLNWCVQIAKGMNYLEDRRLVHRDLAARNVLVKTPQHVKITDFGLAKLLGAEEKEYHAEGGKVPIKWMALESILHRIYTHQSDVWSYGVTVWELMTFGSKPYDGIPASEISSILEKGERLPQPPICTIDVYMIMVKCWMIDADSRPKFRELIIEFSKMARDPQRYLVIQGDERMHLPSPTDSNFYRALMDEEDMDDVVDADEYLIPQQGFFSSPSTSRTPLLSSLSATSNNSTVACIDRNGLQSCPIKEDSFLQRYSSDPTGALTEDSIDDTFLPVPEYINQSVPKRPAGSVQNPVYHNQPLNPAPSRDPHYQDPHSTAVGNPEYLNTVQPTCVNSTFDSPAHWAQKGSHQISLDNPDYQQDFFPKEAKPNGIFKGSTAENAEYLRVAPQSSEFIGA
Description: as §1

HER4 = HER4 (Homo sapiens, UniProt Q15303); experiment: Mobility shift assay, kinase inhibition (HER4); type: biochemical; details: read-out: Kinase inhibitory activity IC50 (nM) HER4
Chain of HER4 (Q15303 26-1308): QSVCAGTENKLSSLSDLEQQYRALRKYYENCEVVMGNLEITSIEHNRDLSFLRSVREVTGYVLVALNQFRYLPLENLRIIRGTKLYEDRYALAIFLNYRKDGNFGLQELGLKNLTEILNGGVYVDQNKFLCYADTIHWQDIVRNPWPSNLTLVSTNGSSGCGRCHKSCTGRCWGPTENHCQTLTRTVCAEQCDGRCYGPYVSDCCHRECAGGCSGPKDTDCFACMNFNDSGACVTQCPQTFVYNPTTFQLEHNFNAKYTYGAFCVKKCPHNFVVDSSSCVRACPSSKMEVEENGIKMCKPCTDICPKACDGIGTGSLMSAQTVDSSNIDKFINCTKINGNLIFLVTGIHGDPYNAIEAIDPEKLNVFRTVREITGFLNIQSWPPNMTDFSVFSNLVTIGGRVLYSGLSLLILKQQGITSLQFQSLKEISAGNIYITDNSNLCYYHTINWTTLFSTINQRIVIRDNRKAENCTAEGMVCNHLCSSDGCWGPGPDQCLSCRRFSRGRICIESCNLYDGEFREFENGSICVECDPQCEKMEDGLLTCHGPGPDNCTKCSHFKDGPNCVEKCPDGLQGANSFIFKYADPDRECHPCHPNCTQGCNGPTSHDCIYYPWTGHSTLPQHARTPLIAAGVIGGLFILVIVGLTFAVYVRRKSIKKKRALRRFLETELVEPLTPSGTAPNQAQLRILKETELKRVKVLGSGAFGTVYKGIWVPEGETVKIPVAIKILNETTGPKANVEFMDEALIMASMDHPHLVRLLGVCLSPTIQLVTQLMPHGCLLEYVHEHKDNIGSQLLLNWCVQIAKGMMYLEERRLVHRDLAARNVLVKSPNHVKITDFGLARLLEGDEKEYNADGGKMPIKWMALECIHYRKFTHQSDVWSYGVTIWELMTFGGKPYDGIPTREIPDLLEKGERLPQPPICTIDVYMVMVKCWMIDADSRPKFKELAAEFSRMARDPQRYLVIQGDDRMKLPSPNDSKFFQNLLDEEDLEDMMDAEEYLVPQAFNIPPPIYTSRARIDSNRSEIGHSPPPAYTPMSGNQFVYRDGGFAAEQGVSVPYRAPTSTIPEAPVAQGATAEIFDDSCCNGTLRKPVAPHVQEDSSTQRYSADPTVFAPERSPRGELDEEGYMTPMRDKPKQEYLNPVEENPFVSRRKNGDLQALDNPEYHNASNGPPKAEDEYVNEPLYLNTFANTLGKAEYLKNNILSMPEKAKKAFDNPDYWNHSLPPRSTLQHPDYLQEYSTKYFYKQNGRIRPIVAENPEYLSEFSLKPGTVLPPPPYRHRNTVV
Description: as §1

NCI-H1975 = type: in vivo, BALB/c nude mice; details: for Tumor volume: 60 mg/kg PO QD
From the text: Preparation method: dissolve the test compound in 20% PEG400+3% Tween80 to obtain a required concentration; dissolve the control group in 0.5% CMC+0.4% Tween80 to obtain a required concentration.
BALB/c nude mice (Shanghai xipuer-bikai experimental animals company), weight 16-18 g, female. BD matrigel, NCI-H1975 cell (ATCC)
Cells in logarithmic phase were collected. The ratio of medium to matrigel was 1:1. The concentration of cell was adjust to 3×10^7/ml and put into a ice box, then inoculated in each nude mice subcutaneously with 0.2 ml. Then carry out intragastric administration once a day for 5 days and stop administration for 2 days. Administrate for 9 days in total. Dosages are as follows:
The size and weight were measured. The length and width of tumors were measured individually with microcalipers. Tumor volume (V) and relative tumor volume (RTV) was calculated as formula. Day 12, all the nude mouse were killed and the tumors were taken out and pictured. The individual as follows: RTV=Vt/V0, where Vt is and V0 is. and the calculation formula is T/C (%)=mean RTV of the treated group/mean RTV of the control group×100%.
(1) Tumor volume (Tumor Volume, TV), calculation formula: […], wherein a and b presents length and width respectively.
(2) Relative Tumor Volume (RTV), calculation formula: RTV=Vt/V0.
Wherein TV0 is the volume on the day of initial treatment, TVt is the volume on each day of measurement.
(3) The relative tumor increment rate T/C (%), calculation formula: […]
TRTV: treated group RTV; CRTV: negative control group RTV.
Therapeutic effect of compound was expressed in terms of T/C %.

[1] = test system: NCI-H1975 L858R T790M cell; experiment: Proliferation inhibition, H1975 cells (CellTiter-Glo); type: cell-based; details: Homo sapiens, 48 hours
Description: (§2) This example is to determine the proliferation inhibitory activity against wide type of high expression cell lines A431 of EGFR and mutant cell lines NCI-H1975^L858RT790M, the proliferation inhibitory activity in cell-based level of compound is expressed by IC50. The test method is as follows: both cell lines are purchased from American type culture collection (ATCC). The cells are seeded in a white and opaque 384-well culture plate with a proper concentration (A431: 20000 cells/ml medium; H1975: 15000 cells/ml medium), cultured at 37° C. with 5% CO2 for 24 hrs, a series of medicine with gradient concentration is added, generally 10 concentrations, cultured for another 48 hours under the previous conditions. The assays of the proliferation inhibitory activity against the A431 and H1975 cell of the test compounds are performed by the CellTiter-Glo Luminescent Cell Viability Assay and calculate the proliferation inhibitory activity of compound with different concentrations. CellTiter-Glo Luminescent Cell Viability Assay is purchased from Promega. Fit the data of proliferation inhibitory activity against A431 and H1975 of compounds with different concentrations with 4-parameter equation.

EGFR tyrosine kinase = target: T1, EGFR tyrosine kinase (Homo sapiens, UniProt P00533); experiment: HTRF assay, inhibition of EGFR tyrosine kinase; type: biochemical; details: HTRF method
T1 construct: purchased Sigma Aldrich
T1 sequence (P00533 25-1210): as the sequence (P00533 25-1210) above
Description: The activity of inhibitory against the kinase of the test compound is expressed by IC50. The assays are performed by Homogeneous time-resolved fluorescence (HTRF) method which is as follows: a series of synthesized analogues with gradient concentration are incubated for 5 minutes in enzymatic solution with specific concentration (for EGFR) at room temperature. Then proper amount of substrate and ATP are added into the reaction mixture to start the enzyme reaction. The assays of the specific concentration of compound is measured by Flexstation III of Molecular device company after the stop buffer and detecting liquid are added to the enzyme reaction system and hatch at room temperature for 1 hour. And the activity of inhibitory against the kinase of the test compound with different concentration will be calculated, then according to the 4-parameter equation, fit the inhibitory activity of the test compound with different concentration to get the IC50. EGFR is purchased from Sigma Aldrich. The HTRF KinEASE-TK is purchased from Cisbio Bioassays. ATP is purchased from Sigma Aldrich.

A431 cell = experiment: Proliferation inhibition, A431 cells (CellTiter-Glo); type: cell-based; details: Homo sapiens, A-431, 48 hours
Description: as §2

`COc1cc2ncnc(Nc3ccc(F)c(Cl)c3)c2cc1NC(=O)C(F)=CCN(C)C` (mixture of isomers) [Compound 1, N-(4-((3-chloro-4-fluorophenyl)amino)-7-methoxyquinazolin-6-yl)-4-(dimethylamino)-2-fluorobut-2-enamide] gave an IC50 (HER2) of 168 nM, an IC50 (EGFR) of 1.7 nM and an IC50 (HER4) of 21 nM.

`COCCOc1cc2ncnc(Nc3ccc(F)c(Cl)c3)c2cc1NC(=O)C(F)=CCN(C)C` (mixture of isomers) [Compound 3-1, N-(4-((3-chloro-4-fluorophenyl)amino)-7-(2-methoxyethoxy)quinazolin-6-yl)-4-(dimethylamino)-2-fluorobut-2-enamide] was tested, and the IC50 (EGFR) was 2.5 nM.

Work on `COc1cc2ncnc(Nc3ccc(F)c(Cl)c3)c2cc1NC(=O)/C(F)=C/CN(C)C` [Compound 2-1, (Z)—N-(4-((3-chloro-4-fluorophenyl)amino)-7-methoxyquinazolin-6-yl)-4-(dimethylamino)-2-fluorobut-2-enamide] yielded a Tumor volume (NCI-H1975; Day 0, NCI-H1975 nude mice) of 190 ± 17 mm^3, a Tumor volume (NCI-H1975; Day 2, NCI-H1975 nude mice) of 153 ± 11 mm^3 and a Tumor volume (NCI-H1975; Day 4, NCI-H1975 nude mice) of 121 ± 27 mm^3. The Tumor volume (NCI-H1975; Day 7, NCI-H1975 nude mice) was 130 ± 20 mm^3, the Tumor volume (NCI-H1975; Day 9, NCI-H1975 nude mice) was 134 ± 27 mm^3 and the Tumor volume (NCI-H1975; Day 11, NCI-H1975 nude mice) was 164 ± 33 mm^3. The “Inhibition of growth of NCI-H1975 in nude mice (in words)” value (NCI-H1975; NCI-H1975 nude mice, 60 mpk, 60 mg/kg) was “strong inhibitory”, the IC50 (HER2) was 75 nM and the IC50 (EGFR) was 1.3 nM. The IC50 (HER4) was 23 nM.

Compound `COc1cc2ncnc(Nc3ccc(F)c(Cl)c3)c2cc1NC(=O)/C(F)=C\CN(C)C` [Compound 2-2, (E)-N-(4-((3-chloro-4-fluorophenyl)amino)-7-methoxyquinazolin-6-yl)-4-(dimethylamino)-2-fluorobut-2-enamide] has an IC50 (HER2) of 369 nM, an IC50 (EGFR) of 4.5 nM and an IC50 (HER4) of 63 nM.

With `COc1cc2ncnc(Nc3ccc(OCc4ccccn4)c(Cl)c3)c2cc1NC(=O)/C(F)=C/CN(C)C` [Compound 4-1, (Z)—N-(4-((3-chloro-4-(pyridin-2-ylmethoxy)phenyl)amino)-7-methoxyquinazolin-6-yl)-4-(dimethylamino)-2-fluorobut-2-enamide] the IC50 (HER2) was 62 nM.

Work on `COc1cc2ncnc(Nc3ccc(OCc4ccccn4)c(Cl)c3)c2cc1NC(=O)/C(F)=C\CN(C)C` [Compound 4-2, (E)-N-(4-((3-chloro-4-(pyridin-2-ylmethoxy)phenyl)amino)-7-methoxyquinazolin-6-yl)-4-(dimethylamino)-2-fluorobut-2-enamide] yielded an IC50 (HER2) of 64 nM, an IC50 (EGFR) of 9.5 nM and an IC50 (HER4) of 206 nM.

`C=C(F)C(=O)Nc1cc2c(Nc3ccc(F)c(Cl)c3F)ncnc2cc1OCC1CCN(C)CC1` [Compound 6, N-(4-((3-chloro-2,4-difluorophenyl)amino)-7-((1-methylpiperidin-4-yl)methoxy)quinazolin-6-yl)-2-fluoroacrylamide] showed a Tumor volume (NCI-H1975; Day 0, NCI-H1975 nude mice) of 179 ± 13 mm^3, a Tumor volume (NCI-H1975; Day 2, NCI-H1975 nude mice) of 154 ± 35 mm^3 and a Tumor volume (NCI-H1975; Day 4, NCI-H1975 nude mice) of 113 ± 26 mm^3. The Tumor volume (NCI-H1975; Day 7, NCI-H1975 nude mice) was 66 ± 16 mm^3, the Tumor volume (NCI-H1975; Day 9, NCI-H1975 nude mice) was 58 ± 11 mm^3 and the Tumor volume (NCI-H1975; Day 11, NCI-H1975 nude mice) was 57 ± 11 mm^3. The Tolerability in mice (NCI-H1975; mouse, in vivo, po, 60 mg/kg) was “well tolerated”, the pIC50 [1] was 5.92 and the IC50 (EGFR tyrosine kinase) was 0.54 nM. For the same compound, the pIC50 (A431 cell) was 6.30.
